From BindingDB's records for patent US20250346571 (Xizang Haisco Pharmaceutical, 2025)
pIC50: −log10 of the molar value.

Target: Poly [ADP-ribose] polymerase 1 (Homo sapiens, UniProt P09874)
Assay: PARP-1 Enzyme Activity Test Experiment
Method: PARP-1 chemical […] detection kit was purchased from BPS Bioscience. The histone solution in the kit was diluted 5× with 1×PBS, and 25 μL of the diluted histone solution was added to a microwell plate and incubated overnight at 4° C. After the incubation, the plate was washed three times with PBST (0.05% Tween-20). 100 μL of the blocking solution was added to the microwell plate and incubated at 25° C. for 90 minutes. After the incubation was completed, the plate was washed three times with PBST. 2.5 μL of compounds at different concentrations diluted in test buffer and 12.5 μL of substrate mixed solution (1.25 μL 10×PARP test buffer; 1.25 μL 10×PARP test mixed solution; 2.5 μL Activated DNA, 7.5 μL double-distilled water) were added to the microwell plate. The PARP-1 enzyme was diluted to 2 ng/μL, […] was added to the microwell plate, and the reaction system was incubated at 25° C. for 60 minutes. After the incubation was completed, the plate was washed three times with PBST. Streptavidin-HRP was diluted 50× with a blocking solution, and 25 μL of the diluent was added to the microwell plate and incubated at 25° C. for 30 minutes. […] ELISA ECL substrate A and substrate B were uniformly mixed at a ratio of 1:1 (v/v), 50 μL of the mixture was added to the microwell plate, and the chemiluminescence value was read.

Chain of Poly [ADP-ribose] polymerase 1 (P09874 whole entry): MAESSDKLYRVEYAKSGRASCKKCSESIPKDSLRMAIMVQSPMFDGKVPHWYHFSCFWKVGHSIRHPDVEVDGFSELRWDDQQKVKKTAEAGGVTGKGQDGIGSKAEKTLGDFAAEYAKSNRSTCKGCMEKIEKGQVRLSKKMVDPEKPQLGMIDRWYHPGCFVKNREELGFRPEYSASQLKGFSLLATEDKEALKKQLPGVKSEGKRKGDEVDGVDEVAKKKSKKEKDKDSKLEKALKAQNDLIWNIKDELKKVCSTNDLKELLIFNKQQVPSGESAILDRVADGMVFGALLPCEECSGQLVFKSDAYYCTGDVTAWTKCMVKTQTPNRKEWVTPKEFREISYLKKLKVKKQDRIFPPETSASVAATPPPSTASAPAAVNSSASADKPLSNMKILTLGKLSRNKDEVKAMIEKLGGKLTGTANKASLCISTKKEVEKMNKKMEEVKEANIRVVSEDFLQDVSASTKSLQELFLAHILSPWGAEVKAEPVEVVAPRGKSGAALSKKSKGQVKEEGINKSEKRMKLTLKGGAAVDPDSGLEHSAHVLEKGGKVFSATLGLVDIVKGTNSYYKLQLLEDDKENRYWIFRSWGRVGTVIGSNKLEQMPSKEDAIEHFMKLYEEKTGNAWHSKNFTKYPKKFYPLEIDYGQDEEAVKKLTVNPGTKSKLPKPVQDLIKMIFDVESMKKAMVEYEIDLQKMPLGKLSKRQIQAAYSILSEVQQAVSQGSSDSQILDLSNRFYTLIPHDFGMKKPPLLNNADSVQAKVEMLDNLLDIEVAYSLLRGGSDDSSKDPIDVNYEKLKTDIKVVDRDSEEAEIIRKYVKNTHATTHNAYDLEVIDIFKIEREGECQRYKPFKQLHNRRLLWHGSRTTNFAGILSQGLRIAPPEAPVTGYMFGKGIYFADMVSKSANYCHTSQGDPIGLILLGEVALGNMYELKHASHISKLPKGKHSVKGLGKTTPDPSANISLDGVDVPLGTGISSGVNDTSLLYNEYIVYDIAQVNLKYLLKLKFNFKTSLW

pIC50: > 8.30
SMILES: Cn1cc(NC(=O)c2ccc(N3CCN(Cc4ccc5nc(C(F)F)c(=O)[nH]c5c4F)CC3)c(F)n2)cn1 [US20250346571, Compound 15]
